The source of these data is patent US20240245789A1, “POLYMER CONJUGATES OF DRUGS TARGETING 5-HT AND OTHER RECEPTORS IN THE CENTRAL NERVOUS SYSTEM (CNS) THAT ALSO TARGETS RECEPTORS OUTSIDE OF THE CNS” (Arbormentis LLC, priority 2021, published 2024).

The test system of one data set is CCL-2. Kind of data set: mRNA expression of CCL2 in HepG2 cells (in vitro NAFLD model). The following applies: PA:OA mix.
The next data set has as its system TNF-α. Kind of data set: mRNA expression of TNF-α in HepG2 cells (in vitro NAFLD model). The following applies: PA:OA mix.
In the next data set the test system is NMDAR1 receptor. Kind of data set: protein expression of NMDAR1 in the liver of NAFLD mice.
The subject of data set [1] is mice fed with standard diet. The following applies: 0.05 mg/kg daily.

The structures appear in SMILES notation.

With `CN(C)CCc1c[nH]c2cccc(O)c12` [psilocin], the “mRNA expression of CCL-2” value with CCL-2 is given as “reduction in the mRNA expression”. In the data set on TNF-α, the “mRNA expression of TNF-α” value is on record as “reduction in the mRNA expression”. The “expression of the NMDAR1 receptor in the liver” value with NMDAR1 receptor is recorded as “counteracting its overexpression induced by steatosis”.

With `CN(C)CCc1c[nH]c2cccc(OP(=O)(O)O)c12` [psilocybin], the “signs of hepatic damage (hepatotoxicity)” value in data set [1] was “no signs of hepatic damage were observed”.
